Measured values as given in US12097241B2, “Methods of treating kidney failure, and/or improving or stablizing renal function using modified relaxin polypeptides” (BRISTOL-MYERS SQUIBB COMPANY, priority 2017, dated 2024).
Like-named read-outs stand apart in the source and are kept apart here.

Target: T1, human RXFP1 receptor (Homo sapiens, UniProt Q9HBX9)
T1 construct: expressed in transfected cells
T1 sequence (Q9HBX9 1-757): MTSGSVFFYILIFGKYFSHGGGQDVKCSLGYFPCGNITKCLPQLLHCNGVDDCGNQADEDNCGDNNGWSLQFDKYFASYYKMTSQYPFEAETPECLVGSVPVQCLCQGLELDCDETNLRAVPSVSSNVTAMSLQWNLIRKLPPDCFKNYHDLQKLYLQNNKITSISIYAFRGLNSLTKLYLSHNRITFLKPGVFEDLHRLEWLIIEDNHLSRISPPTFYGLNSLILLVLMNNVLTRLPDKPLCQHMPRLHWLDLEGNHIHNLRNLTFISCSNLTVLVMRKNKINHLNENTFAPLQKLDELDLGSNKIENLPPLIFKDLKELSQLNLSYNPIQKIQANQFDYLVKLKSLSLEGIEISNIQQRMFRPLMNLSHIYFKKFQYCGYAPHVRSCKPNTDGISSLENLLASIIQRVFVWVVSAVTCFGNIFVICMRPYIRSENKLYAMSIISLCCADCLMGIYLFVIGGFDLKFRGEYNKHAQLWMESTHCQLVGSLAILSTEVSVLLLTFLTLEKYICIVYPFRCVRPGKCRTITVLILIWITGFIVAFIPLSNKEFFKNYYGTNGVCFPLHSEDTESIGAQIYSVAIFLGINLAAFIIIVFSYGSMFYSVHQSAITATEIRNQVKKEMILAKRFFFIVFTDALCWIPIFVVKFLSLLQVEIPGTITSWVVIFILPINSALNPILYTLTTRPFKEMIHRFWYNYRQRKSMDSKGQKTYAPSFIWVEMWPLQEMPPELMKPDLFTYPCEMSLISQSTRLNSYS
Assay: Intracellular cAMP accumulation assay
Type: cell-based
Procedure: The intracellular cAMP accumulation assay described herein was used to assess relaxin bioactivity and potency.
CHO-K1 cells (ATCC; Cat. #CRL-9618) stably expressing the human RXFP1 receptor (locus number LOC59350) (10,000/well) were plated into 96-well plates and cultured overnight at 37° C. and 5% CO2. On the following day, the medium was removed from the wells and the cells were stimulated with the addition of ligand (relaxin polypeptide) in 50 uL buffer (1×HBSS, 5 mM HEPES (7.2), 0.5 mM IBMX, 0.1% BSA); incubation was for 10 min at 37° C. Unstimulated cells were utilized as reference controls. Reactions were terminated and cellular cAMP levels were measured using the Homogeneous Time Resolved Fluorescence (HTRF) Dynamic 2 cAMP kit (CisBio, #62AM4PEC) according to the manufacturer's protocol. Plates were analyzed using an EnVision 2104 Multilablel Reader (PerkinElmer). Signal was expressed in terms of the ratio of fluorescence intensity @ 665 nm/fluorescence intensity @620 nm×10,000. The concentration of cAMP in the sample was determined by comparison with standard curves generated from known concentrations of cAMP. The potency of each relaxin was determined using a ten-point concentration response curves which was performed in duplicate. The data were analyzed using Microsoft Excel, Version 2013 Xlfit software. Effective concentration 50 (EC50) values, the point at which the response was one-half maximal, were calculated using a four-parameter logistic equation that allowed for a variable-slope (Table 3).

| SMILES | EC50 | EC50 (CHO-K1 cells stably expressing human RXFP1, 10 min at 37° C., HTRF cAMP, average, read-out: hRXFP1/CHO-K1 cAMP EC50 (nM, avg)) |
| --- | --- | --- |
| CCCCCCCCCCCCCCC(=O)N[C@@H](CCC(=O)N[C@@H](CCC(=O)O)C(=O)N[C@@H](CCC(=O)O)C(=O)N[C@@H](CCC(=O)O)C(=O)N[C@@H](CCC(=O)O)C(=O)N1CCC[C@H]1C(=O)N[C@@H](CCC(=O)O)C(=O)N[C@@H](CCC(=O)O)C(=O)N[C@@H](CCC(=O)O)C(=O)N[C@@H](CCC(=O)O)C(=O)N1CCC[C@H]1C(=O)N[C@@H](CCC(=O)O)C(=O)N[C@@H](CCC(=O)O)C(=O)N[C@@H](CCC(=O)O)C(=O)N[C@@H](CCC(=O)O)C(=O)N1CCC[C@H]1C(=O)N[C@@H](CCC(=O)O)C(=O)N[C@@H](CCC(=O)O)C(=O)N[C@@H](CCC(=O)O)C(=O)N[C@@H](CCC(=O)O)C(=O)NCCON=C(C)c1ccc(C[C@H](N)C(=O)N[C@@H](CC(C)C)C(=O)N[C@@H](Cc2ccc(O)cc2)C(=O)N[C@@H](CO)C(=O)N[C@@H](C)C(=O)N[C@@H](CC(C)C)C(=O)N[C@@H](C)C(=O)N[C@@H](CC(N)=O)C(=O)N[C@@H](CCCCN)C(=O)N[C@H]2CSSC[C@@H]3NC(=O)CNC(=O)[C@H](C(C)C)NC(=O)[C@H](Cc4c[nH]cn4)NC(=O)[C@H](CSSC[C@H](NC(=O)[C@H](CC(C)C)NC(=O)[C@H](CCCCN)NC(=O)[C@@H](NC(=O)[C@@H](NC(=O)[C@H](CCC(=O)O)NC(=O)[C@H](CCC(=O)O)NC(=O)[C@H](CCSC)NC(=O)[C@H](Cc4c[nH]c5ccccc45)NC(=O)[C@H](CO)NC(=O)[C@H](C)N)C(C)C)[C@@H](C)CC)C(=O)NCC(=O)N[C@@H](CCCNC(=N)N)C(=O)N[C@@H](CCC(=O)O)C(=O)N[C@@H](CC(C)C)C(=O)N[C@@H](C(C)C)C(=O)N[C@@H](CCCNC(=N)N)C(=O)N[C@@H](C)C(=O)N[C@@H](CCC(N)=O)C(=O)N[C@@H]([C@@H](C)CC)C(=O)N[C@@H](C)C(=O)N[C@@H]([C@@H](C)CC)C(=O)N[C@H](C(=O)NCC(=O)N[C@@H](CCSC)C(=O)N[C@@H](CO)C(=O)N[C@H](C(=O)N[C@@H](Cc4c[nH]c5ccccc45)C(=O)N[C@@H](CO)C(=O)O)[C@@H](C)O)CSSC[C@@H](C(=O)O)NC(=O)[C@H](Cc4ccccc4)NC(=O)[C@H](CCCNC(=N)N)NC(=O)[C@H](C)NC(=O)[C@H](CC(C)C)NC(=O)[C@H](CO)NC(=O)[C@H](CCCNC(=N)N)NC(=O)[C@H](CCCCN)NC(=O)[C@H]([C@@H](C)O)NC3=O)NC2=O)cc1)C(=O)O [AQ1-EEEEPEEEEPEEEEPEEEE-Glu^γ-C14-CH3] | 0.33 nM |  |
| CC[C@H](C)[C@@H]1NC(=O)[C@H](C)NC(=O)[C@H]([C@@H](C)CC)NC(=O)[C@H](CCC(N)=O)NC(=O)[C@H](C)NC(=O)[C@H](CCCNC(=N)N)NC(=O)[C@H](C(C)C)NC(=O)[C@H](CC(C)C)NC(=O)[C@H](CCC(=O)O)NC(=O)[C@H](CCCNC(=N)N)NC(=O)CNC(=O)[C@@H](NC(=O)[C@H](CC(C)C)NC(=O)[C@H](CCCCN)NC(=O)[C@@H](NC(=O)[C@@H](NC(=O)[C@H](CCC(=O)O)NC(=O)[C@H](CCC(=O)O)NC(=O)[C@H](CCSC)NC(=O)[C@H](Cc2c[nH]c3ccccc23)NC(=O)[C@H](CO)NC(=O)[C@H](C)N)C(C)C)[C@@H](C)CC)CSSC[C@@H]2NC(=O)[C@@H](NC(=O)[C@H](CCCCN)NC(=O)[C@H](CC(N)=O)NC(=O)[C@H](C)NC(=O)[C@H](CC(C)C)NC(=O)[C@H](C)NC(=O)[C@H](CO)NC(=O)[C@H](Cc3ccc(O)cc3)NC(=O)[C@H](CC(C)C)NC(=O)[C@@H](N)Cc3ccc(/C(C)=N/OCCNC(=O)CCC(=O)NCCCNCCCCNCCCNC(=O)CC[C@H](NC(=O)CCCCCCCCCCCCCC(=O)O)C(=O)O)cc3)CSSC[C@H](NC(=O)CNC(=O)[C@H](C(C)C)NC(=O)[C@H](Cc3c[nH]cn3)NC2=O)C(=O)N[C@@H]([C@@H](C)O)C(=O)N[C@@H](CCCCN)C(=O)N[C@@H](CCCNC(=N)N)C(=O)N[C@@H](CO)C(=O)N[C@@H](CC(C)C)C(=O)N[C@@H](C)C(=O)N[C@@H](CCCNC(=N)N)C(=O)N[C@@H](Cc2ccccc2)C(=O)N[C@H](C(=O)O)CSSC[C@@H](C(=O)NCC(=O)N[C@@H](CCSC)C(=O)N[C@@H](CO)C(=O)N[C@H](C(=O)N[C@@H](Cc2c[nH]c3ccccc23)C(=O)N[C@@H](CO)C(=O)O)[C@@H](C)O)NC1=O [AQ1-Spermine-Glu^γ-C14-COOH] | 0.39 nM |  |
| CC[C@H](C)[C@@H]1NC(=O)[C@H](C)NC(=O)[C@H]([C@@H](C)CC)NC(=O)[C@H](CCC(N)=O)NC(=O)[C@H](C)NC(=O)[C@H](CCCNC(=N)N)NC(=O)[C@H](C(C)C)NC(=O)[C@H](CC(C)C)NC(=O)[C@H](CCC(=O)O)NC(=O)[C@H](CCCNC(=N)N)NC(=O)CNC(=O)[C@@H](NC(=O)[C@H](CC(C)C)NC(=O)[C@H](CCCCN)NC(=O)[C@@H](NC(=O)[C@@H](NC(=O)[C@H](CCC(=O)O)NC(=O)[C@H](CCC(=O)O)NC(=O)[C@H](CCSC)NC(=O)[C@H](Cc2c[nH]c3ccccc23)NC(=O)[C@H](CO)NC(=O)[C@H](C)N)C(C)C)[C@@H](C)CC)CSSC[C@@H]2NC(=O)[C@@H](NC(=O)[C@H](CCCCN)NC(=O)[C@H](CC(N)=O)NC(=O)[C@H](C)NC(=O)[C@H](CC(C)C)NC(=O)[C@H](C)NC(=O)[C@H](CO)NC(=O)[C@H](Cc3ccc(O)cc3)NC(=O)[C@H](CC(C)C)NC(=O)[C@@H](N)Cc3ccc(C(C)=NOCCNC(=O)[C@H](CCCCN)NC(=O)[C@H](CCCCN)NC(=O)CC[C@H](NC(=O)CCCCCCCCCCCCC(=O)O)C(=O)O)cc3)CSSC[C@H](NC(=O)CNC(=O)[C@H](C(C)C)NC(=O)[C@H](Cc3c[nH]cn3)NC2=O)C(=O)N[C@@H]([C@@H](C)O)C(=O)N[C@@H](CCCCN)C(=O)N[C@@H](CCCNC(=N)N)C(=O)N[C@@H](CO)C(=O)N[C@@H](CC(C)C)C(=O)N[C@@H](C)C(=O)N[C@@H](CCCNC(=N)N)C(=O)N[C@@H](Cc2ccccc2)C(=O)N[C@H](C(=O)O)CSSC[C@@H](C(=O)NCC(=O)N[C@@H](CCSC)C(=O)N[C@@H](CO)C(=O)N[C@H](C(=O)N[C@@H](Cc2c[nH]c3ccccc23)C(=O)N[C@@H](CO)C(=O)O)[C@@H](C)O)NC1=O [AQ1-KK-Glu^γ-C13-COOH] | 0.1 nM |  |
| CC[C@H](C)[C@@H]1NC(=O)[C@H](C)NC(=O)[C@H]([C@@H](C)CC)NC(=O)[C@H](CCC(N)=O)NC(=O)[C@H](C)NC(=O)[C@H](CCCNC(=N)N)NC(=O)[C@H](C(C)C)NC(=O)[C@H](CC(C)C)NC(=O)[C@H](CCC(=O)O)NC(=O)[C@H](CCCNC(=N)N)NC(=O)CNC(=O)[C@@H](NC(=O)[C@H](CC(C)C)NC(=O)[C@H](CCCCN)NC(=O)[C@@H](NC(=O)[C@@H](NC(=O)[C@H](CCC(=O)O)NC(=O)[C@H](CCC(=O)O)NC(=O)[C@H](CCSC)NC(=O)[C@H](Cc2c[nH]c3ccccc23)NC(=O)[C@H](CO)NC(=O)[C@H](C)N)C(C)C)[C@@H](C)CC)CSSC[C@@H]2NC(=O)[C@@H](NC(=O)[C@H](CCCCN)NC(=O)[C@H](CC(N)=O)NC(=O)[C@H](C)NC(=O)[C@H](CC(C)C)NC(=O)[C@H](C)NC(=O)[C@H](CO)NC(=O)[C@H](Cc3ccc(O)cc3)NC(=O)[C@H](CC(C)C)NC(=O)[C@@H](N)Cc3ccc(/C(C)=N/OCCNC(=O)CN(C)C(=O)CN(C)C(=O)CN(C)C(=O)CN(C)C(=O)[C@H](CO)NC(=O)CC[C@H](NC(=O)CCCCCCCCCCCCC(=O)O)C(=O)O)cc3)CSSC[C@H](NC(=O)CNC(=O)[C@H](C(C)C)NC(=O)[C@H](Cc3c[nH]cn3)NC2=O)C(=O)N[C@@H]([C@@H](C)O)C(=O)N[C@@H](CCCCN)C(=O)N[C@@H](CCCNC(=N)N)C(=O)N[C@@H](CO)C(=O)N[C@@H](CC(C)C)C(=O)N[C@@H](C)C(=O)N[C@@H](CCCNC(=N)N)C(=O)N[C@@H](Cc2ccccc2)C(=O)N[C@H](C(=O)O)CSSC[C@@H](C(=O)NCC(=O)N[C@@H](CCSC)C(=O)N[C@@H](CO)C(=O)N[C@H](C(=O)N[C@@H](Cc2c[nH]c3ccccc23)C(=O)N[C@@H](CO)C(=O)O)[C@@H](C)O)NC1=O [AQ1-Sar-Sar-Sar-Sar-Ser-Glu^γ-C13-COOH] |  | 0.32 nM |
